Data taken from US7498326B2, “Compounds” (Glaxo Group Limited, priority 2002, dated 2009).
Where a name gives a salt, the structure may show the parent alone.

test: MIC of test compounds against various organisms; format: cell-based; conditions: versus all these organisms: S. epidermidis CL7, S. aureus WCUH29, S. pneumoniae 1629, S. pyogenes CN10, H. influenzae ATCC 49247, E. faecalis 2, M. catarrhalis Ravasio, E. coli 7623
Procedure: The MIC (μg/ml) of test compounds against various organisms was determined including: S. epidermidis CL7, S. aureus WCUH29, S. pneumoniae 1629, S. pyogenes CN10, H. influenzae ATCC 49247, E. faecalis 2, M. catarrhalis Ravasio, E. coli 7623. Examples 1, 5, 6, 7, 8, 11, 13 have an MIC≦2 μg/ml versus all these organisms.

**Q.** With COc1cnc2cccc(C(O)CN3CCC(NCc4cc5c(cn4)OCCO5)CC3)c2n1 (stereo not drawn) [Example 6, (1R/S)-2-{4-[(2,3-dihydro[1,4]dioxino[2,3-c]pyridin-7-ylmethyl)amino]1-1-piperidinyl}-1-[3-(methyloxy)-5-quinoxalinyl]ethanol dihydrochloride] as the compound, how does the MIC read?
**A.** ≤ 2 mg/L

**Q.** Which MIC does the source give for N#Cc1ccc2nccc(CCN3CC[C@H](NCc4ccc5c(n4)NC(=O)CO5)[C@H](O)C3)c2c1 (stereo in doubt) [Example 12, 4-[2-(3-hydroxy-4-{[(3-oxo-3,4-dihydro-2H-pyrido[3,2-b][1,4]oxazin-6-yl)methyl]amino}-1-piperidinyl)ethyl]-6-quinolinecarbonitrile (E1 isomer)] here?
**A.** ≤ 16 mg/L

**Q.** Which MIC does the source give for Clc1cnc2ccc3c(c2c1CCN1CCC(NCc2cc4c(cn2)OCCO4)CC1)OCCO3 [Example 7, {1-[2-(9-Chloro-2,3-dihydro-[1,4]dioxino[2,3-f]quinolin-10-yl)-ethyl]-piperidin-4-yl}-(2,3-dihydro-[1,4]dioxino[2,3-c]pyridin-7-ylmethyl)-amine dihydrochloride] here?
**A.** ≤ 2 mg/L

**Q.** For N#Cc1ccc2nccc(CCN3CC[C@H](NCc4ccc5c(n4)NC(=O)CS5)[C@H](O)C3)c2c1 [Example 11, 4-[2-(3-hydroxy-4-{([(3-oxo-3,4-dihydro-2H-pyrido[3,2-b][1,4]thiazin-6-yl)methyl]amino}-1-piperidinyl)ethyl]-6-quinolinecarbonitriledihydrochloride (E2 isomer)], which MIC is on record?
**A.** ≤ 2 mg/L

**Q.** With N#Cc1ccc2nccc(CCN3CCC(NCc4ccc5c(n4)NC(=O)CO5)CC3)c2c1 [Example 1, 4-2-{4-[(3-Oxo-3,4-dihydro-2H-pyrido[3,2-b][1,4]oxazin-6-ylmethyl)-amino]-piperidin-1-yl}-ethyl)-quinoline-6-carbonitrile dihydrochloride] as the compound, how does the MIC read?
**A.** ≤ 2 mg/L

**Q.** With COc1ccc2cccc(C(O)CN3CCC(NCc4ccc5c(n4)NC(=O)CO5)CC3)c2n1 (stereo not drawn) [Example 8, 6-{[(1-{2-hydroxy-2-[2-(methyloxy)-8-quinolinyl]ethyl}4-piperidinyl)amino]methyl}-2H-pyrido[3,2-b][1,4]oxazin-3(4H)-one] as the compound, how does the MIC read?
**A.** ≤ 2 mg/L

**Q.** For O=C1CSc2ccc(CN[C@H]3CCN(CCc4ccnc5ccc6c(c45)OCCO6)C[C@H]3F)nc2N1 [Example 4, 6({(3R,4S)-1-[2-(2,3-Dihydro-[1,4]dioxino[2,3-f]quinolin-10-yl)-ethyl]-3-fluoro-piperidin-4-ylamino}-methyl)-4H-pyrido[3,2-b][1,4]thiazin-3-one], which MIC is on record?
**A.** ≤ 16 mg/L

**Q.** Which MIC does the source give for COc1cnc2cccc(C(O)CN3CCC(NCc4ccc5c(n4)NC(=O)CS5)CC3)c2n1 (racemic) [Example 5, 6-{[(1-{(2R/S)-2-hydroxy-2-[3-(methyloxy)-5-quinoxalinyl]ethyl}-4-piperidinyl)amino]methyl}-2H-pyrido[3,2-b][1,4]thiazin-3(4H)-one dihydrochloride] here?
**A.** ≤ 2 mg/L

same assay, conditions: versus some of these organisms (which of the eight listed strains is not stated)

**Q.** Which MIC does the source give for O=C1CSc2ccc(CNC3CCN(CCc4ccnc5ccccc45)CC3)nc2N1 [Example 9, 6-[({1-[2-(4-quinolinyl)ethyl]-4-piperidinyl}amino)methyl]-2H-pyrido[3,2-b][1,4]thiazin-3(4H)-one dihydrochloride] here?
**A.** ≤ 16 mg/L
